Results reported in patent US20240166665A1, “COVALENT EGFR INHIBITORS AND METHODS OF USE THEREOF” (Dana-Farber Cancer Institute, Inc., priority 2021, published 2024).
pIC50: −log10 of the molar value.

Tests used:
[1] = system: BaF3 EGFR L858R/C797S; experiment: Ba/F3 cell proliferation (Cell Titer Glo); type: cell-based, murine; settings: Mus musculus, 72 hours exposure
Description: (§1) The EGFR mutant L858R Ba/F3 cells have been previously described (Zhou, W., et al. Nature 462, 2009, 1070-1074). The EGFR C797S and C775S mutations were introduced via site directed mutagenesis using the Quick Change Site-Directed Mutagenesis kit into a vector containing EGFR L858R mutation (Stratagene; La Jolla, CA) according to the manufacturers instructions. All constructs were confirmed by DNA sequencing. The constructs were then shuttled into the retroviral vector JP1540 by either using the Cre-recombination system (Agilent Technologies, Santa Clara, CA) or the In-fusion HD Cloning kit (TakaR^a Bio USA, Inc.; Mountain view, CA). Ba/F3 cells were then infected with retrovirus per standard protocols, as described previously (Zhou, et al, Nature 2009). Stable clones were obtained by selection in puromycin (2 μg/ml). All BaF/3 mutant cells were maintained in RPMI 1640 (Cellgro; Mediatech Inc., Herndon, CA) supplemented with 10% FBS, 100 units/mL penicillin, 100 units/mL streptomycin.
(§2) Growth and inhibition of growth was assessed by the Cell Titer Glo assay (Promega, Madison, WI) and was performed according to the manufacturer's instructions. The Cell Titer Glo assay is a luminescence-based method used to determine the number of viable cells based on quantitation of the ATP present, which is directly proportional to the amount of metabolically active cells present. Ba/F3 cells of different EGFR genotypes were exposed to compounds for 72 hours and the number of cells used per experiment was determined empirically as has been previously established (Zhou, et al., Nature 2009). All experimental points were set up in triplicates in 384-well plates. […] The curves were fitted using a non-linear regression model with a sigmoidal dose response.

[2] = system: BaF3 EGFR L858R; experiment: Ba/F3 cell proliferation (Cell Titer Glo); type: cell-based, murine; settings: Mus musculus, 72 hours exposure
Description: as §1, §2

[3] = target: EGFR L858R/T790M/C797S protein (Homo sapiens (Human), UniProt P00533, C797S/L858R/T790M); experiment: MS intact labeling assay; type: binding; settings: 10-fold molar excess of compound, 2 h at 30° C., LC-MS
Protocol: (§3) EGFR L858R/T790M protein (10 μg) or EGFR L858R/T790M/C797S protein was treated with DMSO or a 10-fold molar excess of compound 001 for 2 h at 30° C. and analyzed by LC-MS using an HPLC (Shimadzu, Marlborough, MA) interfaced to an LTQ ion trap mass spectrometer (ThermoFisher Scientific, San Jose, CA). Protein (5 μg) was injected onto a reversed phase column (5 cm POROS 50R2, Applied Biosystems, Foster City, CA), desalted for 4 min (100% A), and gradient eluted (0-100% B in 1 min; A=0.2 M acetic acid in water; B=0.2 M acetic acid in acetonitrile) into the mass spectrometer (spray voltage=4.8 kV). The mass spectrometer was programmed to acquire profile mass spectra (m/z 300-2000). Raw data was deconvoluted using MagTran version 1.03b2.38.

[4] = target: T1, EGFR L858R/T790M (Homo sapiens (Human), UniProt P00533, L858R/T790M); experiment: MS intact labeling assay; type: binding; settings: 10-fold molar excess of compound, 2 h at 30° C., LC-MS
Protocol: as §3

[5] = target: EGFR L858R (Homo sapiens (Human), UniProt P00533, L858R); experiment: HTRF-based EGFR biochemical assay; settings: 100 μM ATP, 30 min preincubation, enzyme 0.1 nM
Protocol: (§4) EGFR biochemical activity measurements were carried out using the homogeneous time-resolved fluorescence (HTRF) assay (Cisbio). Inhibitors and DMSO normalizations were first dispensed to empty black low-volume 384-well plates (Corning) with D300 digital liquid dispenser (HP). All reactions were carried out at room temperature and solutions were added to plates with a Multidrop Combi Reagent Dispenser (ThermoFisher). The reaction mixture (10 μL final volume) contained 1 μM tyrosine kinase peptide-biotin substrate and mutant EGFR in a reaction buffer (50 mM HEPES pH 7.0, 5 mM MgCl2, 1 mM MnCl2, 0.01% BSA, 2 mM TCEP, 0.1 mM NaVO4). Enzyme concentrations were adjusted to accommodate varying kinase activities (L858R^0.1 nM, L858R/T790M 0.02 nM). Enzyme reaction solution (2× concentrations, 5 μL) was added to 384-well plates containing compounds and incubated for 30 mins. Enzyme reactions were initiated with the addition of 5 μL of ATP to a final concentration of 100 μM and reacted for 20 mins. Reactions were quenched with the addition of 10 μL of phospho-tyrosine antibody-Europium(III) cryptate (1-to-180 volume ratio) and Streptavidin-XL665 (46.7 nM) in EDTA-containing detection buffer, then incubated at room temperature for 1 hour, and read with a PHERAstar plate reader (excitation=337 nm, emission=620 nm and 665 nm). IC50 values were determined by inhibition curves (11-point curves from 1.0 μM to 0.130 nM or 23-point curves from 1.0 μM to […]) in triplicate with non-linear least squares fit in GraphPad Prism 7.0d.

[6] = target: T1, EGFR L858R/T790M; experiment: HTRF-based EGFR biochemical assay; settings: 100 μM ATP, 30 min preincubation, enzyme 0.02 nM
Protocol: as §4

[7] = system: NSCLC that have developed resistance to gefitinib or erlotinib; settings: patients with NSCLC resistant to gefitinib or erlotinib; cited from earlier work

T1 sequence (P00533 25-1210 T790M/L858R): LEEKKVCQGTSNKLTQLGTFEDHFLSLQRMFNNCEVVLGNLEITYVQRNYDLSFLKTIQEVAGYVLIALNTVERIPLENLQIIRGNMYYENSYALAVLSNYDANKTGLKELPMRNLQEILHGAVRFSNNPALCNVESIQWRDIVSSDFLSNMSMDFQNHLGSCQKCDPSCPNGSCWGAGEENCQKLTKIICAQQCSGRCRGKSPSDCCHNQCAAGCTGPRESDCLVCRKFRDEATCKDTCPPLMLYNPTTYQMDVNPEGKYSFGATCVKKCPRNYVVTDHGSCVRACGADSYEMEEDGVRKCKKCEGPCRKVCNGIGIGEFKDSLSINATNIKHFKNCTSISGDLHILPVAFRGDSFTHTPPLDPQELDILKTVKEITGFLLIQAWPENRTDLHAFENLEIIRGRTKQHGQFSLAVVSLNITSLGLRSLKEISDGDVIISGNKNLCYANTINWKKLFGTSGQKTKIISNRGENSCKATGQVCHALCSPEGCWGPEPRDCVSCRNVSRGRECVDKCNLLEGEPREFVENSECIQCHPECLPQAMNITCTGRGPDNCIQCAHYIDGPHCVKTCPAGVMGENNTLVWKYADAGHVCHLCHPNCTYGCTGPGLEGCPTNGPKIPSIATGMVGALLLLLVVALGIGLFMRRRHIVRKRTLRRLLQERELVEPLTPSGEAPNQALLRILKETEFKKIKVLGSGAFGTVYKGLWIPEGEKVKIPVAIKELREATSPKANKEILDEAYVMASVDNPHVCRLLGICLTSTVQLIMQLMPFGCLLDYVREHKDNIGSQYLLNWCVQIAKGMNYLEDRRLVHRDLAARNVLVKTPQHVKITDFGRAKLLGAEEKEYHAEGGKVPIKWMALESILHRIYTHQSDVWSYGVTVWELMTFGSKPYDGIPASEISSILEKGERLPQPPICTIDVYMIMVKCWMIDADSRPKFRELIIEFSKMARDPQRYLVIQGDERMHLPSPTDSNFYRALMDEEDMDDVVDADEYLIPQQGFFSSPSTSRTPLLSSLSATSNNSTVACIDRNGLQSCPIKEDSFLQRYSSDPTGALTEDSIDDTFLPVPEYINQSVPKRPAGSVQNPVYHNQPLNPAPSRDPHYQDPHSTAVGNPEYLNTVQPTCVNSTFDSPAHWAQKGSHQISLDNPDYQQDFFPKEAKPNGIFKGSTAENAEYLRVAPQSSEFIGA
EGFR L858R, sequence (P00533 25-1210 L858R): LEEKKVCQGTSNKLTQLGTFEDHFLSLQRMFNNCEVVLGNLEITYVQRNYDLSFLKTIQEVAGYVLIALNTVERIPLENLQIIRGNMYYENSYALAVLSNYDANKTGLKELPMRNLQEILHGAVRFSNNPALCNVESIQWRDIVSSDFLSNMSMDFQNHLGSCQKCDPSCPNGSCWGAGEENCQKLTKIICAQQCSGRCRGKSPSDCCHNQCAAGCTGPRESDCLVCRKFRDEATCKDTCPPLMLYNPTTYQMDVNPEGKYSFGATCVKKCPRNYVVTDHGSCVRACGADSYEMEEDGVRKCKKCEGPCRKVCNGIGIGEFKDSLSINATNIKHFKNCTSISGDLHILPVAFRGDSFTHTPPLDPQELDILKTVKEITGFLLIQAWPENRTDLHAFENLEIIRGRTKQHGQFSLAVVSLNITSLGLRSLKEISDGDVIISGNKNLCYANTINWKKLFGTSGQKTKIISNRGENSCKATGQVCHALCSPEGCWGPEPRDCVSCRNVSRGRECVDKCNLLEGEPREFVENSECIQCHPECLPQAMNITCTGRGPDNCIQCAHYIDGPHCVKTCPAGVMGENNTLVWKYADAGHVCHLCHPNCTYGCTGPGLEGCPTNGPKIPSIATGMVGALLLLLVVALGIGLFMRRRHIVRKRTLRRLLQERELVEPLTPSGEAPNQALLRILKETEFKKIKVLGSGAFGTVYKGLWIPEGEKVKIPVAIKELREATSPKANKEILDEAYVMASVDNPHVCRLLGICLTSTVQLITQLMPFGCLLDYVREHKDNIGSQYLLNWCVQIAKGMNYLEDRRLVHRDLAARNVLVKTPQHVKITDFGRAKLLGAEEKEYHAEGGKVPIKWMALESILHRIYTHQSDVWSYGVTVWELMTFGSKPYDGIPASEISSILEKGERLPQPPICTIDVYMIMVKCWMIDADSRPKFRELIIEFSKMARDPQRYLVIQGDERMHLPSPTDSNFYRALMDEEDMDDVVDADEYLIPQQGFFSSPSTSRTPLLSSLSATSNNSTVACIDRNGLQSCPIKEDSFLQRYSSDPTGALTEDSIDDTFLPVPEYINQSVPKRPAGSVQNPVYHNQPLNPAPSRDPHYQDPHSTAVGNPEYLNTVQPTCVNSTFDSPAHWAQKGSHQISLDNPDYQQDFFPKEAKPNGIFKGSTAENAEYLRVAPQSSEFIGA
EGFR L858R/T790M/C797S protein, sequence (P00533 25-1210 T790M/C797S/L858R): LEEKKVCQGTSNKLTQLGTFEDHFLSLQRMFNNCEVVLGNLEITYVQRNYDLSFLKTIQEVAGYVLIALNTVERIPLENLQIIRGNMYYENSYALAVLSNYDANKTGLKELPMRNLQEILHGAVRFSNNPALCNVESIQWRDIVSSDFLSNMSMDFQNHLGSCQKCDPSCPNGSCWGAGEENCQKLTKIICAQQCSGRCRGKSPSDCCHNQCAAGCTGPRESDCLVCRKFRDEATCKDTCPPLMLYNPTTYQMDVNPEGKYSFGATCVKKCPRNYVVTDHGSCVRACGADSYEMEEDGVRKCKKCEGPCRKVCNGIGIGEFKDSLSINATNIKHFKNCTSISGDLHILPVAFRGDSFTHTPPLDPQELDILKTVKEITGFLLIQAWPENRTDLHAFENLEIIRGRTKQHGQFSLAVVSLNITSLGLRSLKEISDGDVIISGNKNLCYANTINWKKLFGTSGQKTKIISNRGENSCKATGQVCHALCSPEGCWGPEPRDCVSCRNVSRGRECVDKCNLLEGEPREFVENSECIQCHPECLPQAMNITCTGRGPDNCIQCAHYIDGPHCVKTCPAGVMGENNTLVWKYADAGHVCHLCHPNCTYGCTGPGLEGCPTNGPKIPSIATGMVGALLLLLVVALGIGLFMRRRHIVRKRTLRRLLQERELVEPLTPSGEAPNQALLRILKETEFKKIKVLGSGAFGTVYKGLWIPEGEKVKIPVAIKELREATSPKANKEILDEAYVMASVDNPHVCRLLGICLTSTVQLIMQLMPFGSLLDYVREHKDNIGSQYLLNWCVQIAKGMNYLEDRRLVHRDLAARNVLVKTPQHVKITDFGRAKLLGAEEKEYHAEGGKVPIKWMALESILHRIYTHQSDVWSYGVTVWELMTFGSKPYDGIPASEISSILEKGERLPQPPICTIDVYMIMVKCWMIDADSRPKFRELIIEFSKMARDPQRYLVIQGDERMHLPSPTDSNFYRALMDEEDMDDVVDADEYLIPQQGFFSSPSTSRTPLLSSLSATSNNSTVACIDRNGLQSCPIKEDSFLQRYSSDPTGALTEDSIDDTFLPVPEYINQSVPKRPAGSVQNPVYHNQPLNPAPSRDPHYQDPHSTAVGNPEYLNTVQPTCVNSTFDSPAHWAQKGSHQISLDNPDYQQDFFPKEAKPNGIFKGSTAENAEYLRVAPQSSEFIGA

Compound | pIC50 [1] | pIC50 [2] | Percent Labeling [3] | Percent Labeling [4] | pIC50 [5] | pIC50 [6] | RR (response rate) [7]
C=CC(=O)Nc1cc2cc(c1)-c1cnn(C)c1OCCC[C@@H](C)Cn1c(nc3ccc(Br)cc31)NC2=O [Compound 001] | 5.84 | 5.54 | 80% | 80% | < 7.00 | < 7.00 | –
C=CC(=O)Nc1cc2sc1-c1cnn(C)c1OCCC[C@@H](C)Cn1c(nc3ccc(Br)cc31)NC2=O [Compound 002] | 5.45 | 5.35 | – | – | < 7.00 | < 7.00 | –
C=CC(=O)Nc1cc2sc1-c1cnccc1OCCC[C@@H](C)Cn1c(nc3ccc(Br)cc31)NC2=O [Compound 003] | 5.39 | 5.35 | – | – | – | – | –
CN(C)C/C=C/C(=O)Nc1cc2c(Nc3ccc(F)c(Cl)c3)ncnc2cc1O[C@H]1CCOC1 [afatinib] | – | – | – | – | – | – | less than 10%
